In patent publication US7018642B2 (The Procter & Gamble Company, priority 2001, dated 2006) one finds inhibition data, which are given here for six compounds.

Assay type in all cases: cell-based
The test system of test [1] is S. epidermidis strain ATCC 35984. Kind of test: Improved biofilm dispersion screen (already-formed biofilms, crystal violet). The following applies: Staphylococcus epidermidis, ATCC35984, no NaOH, positive = dispersion, negative = enhancement of pre-existing biofilm, quadruplicate, read-out: average percentage reduction of biofilm relative to the two control values (dispersion). As for the experimental part:
(§1) A modification of method disclosed in Reference Example 2, which greatly improves the sensitivity and reproducibility of the dispersion screen is hereby disclosed. […] In the modification described herein, compounds are added in the presence of the fresh liquid growth media, such that the resultant biofilms continue to grow, unless a test compound triggers their dispersion. Overnight cultures are made as above, and 100 μL of the appropriate liquid growth media are dispensed into duplicate 96 well microplates—in this fashion, two identical microplates are set up for each bacterial species to be assayed. Neither compounds nor DMSO are added prior to the inoculation of bacteria, and growth in the duplicate plates for 24 hours is allowed using the conditions specified in Reference Example 1. After growth of biofilm to be tested in the wells, cells present in biofilm attached to one of the duplicate microplates is stained with CV, quantitated as described in Reference Example 1, and the data for the entire plate averaged, resulting in a growth control value, t0. The remaining replicate of each microplate pairs is treated with compounds in DMSO, or DMSO alone for control wells, by first removing the cell suspensions from the wells, then adding fresh 100 μL volumes of the same appropriate liquid growth media, followed by direct addition and mixing of the compound DMSO solutions to give final compound concentrations of 390 μM. Incubation of the compound-containing microplates is then continued for an additional 22–26 hours using the same conditions described in Reference Example 1. Cell suspensions are then removed, 100 μL per well of a 0 mM NaOH (S. epidermidis), 20 mM NaOH (P. fluorescens), or 30 mM NaOH (P. aeruginosa) solution in PBS is added, and incubation at room temperature is allowed for 30 minutes. No addition of NaOH is made to the S. epidermidis suspension since a test assay indicated no amplification by base with S. epidermidis. The microplates are subsequently rinsed three times with 150 μL per well of PBS, followed by final liquid removal, staining with CV and quantitation as described in Reference Example 1. Data for each well that contained compound result in a compound value, R, and data for control wells that contained DMSO only are averaged to generate a second control value, t24. The effect of each compound tested on dispersion of the biofilm compared to the two control values is calculated thus: [formula] […] Data are expressed in terms of the average percentage reduction of biofilm formed in the presence of each compound, relative to the two control values, for quadruplicate samples. Assays are run as described above, using compound concentrations of 390 μM. Positive numbers indicate dispersion (reduction) of pre-existing biofilms by a compound, and negative numbers indicate enhancement (stimulation of growth) of pre-existing biofilms by a compound (percentage coefficients of variation are ≦15%).

The test system of test [2] is P. aeruginosa strain PAO1. Described as above. The following applies: Pseudomonas aeruginosa, 30 mM NaOH step, positive = dispersion, negative = enhancement of pre-existing biofilm, quadruplicate, read-out: average percentage reduction of biofilm relative to the two control values (dispersion). As for the experimental part: as §1
The test system of test [3] is P. fluorescens strain ATCC 13525. The description is as above. As to conditions: Pseudomonas fluorescens, ATCC13525, 20 mM NaOH step, positive = dispersion, negative = enhancement of pre-existing biofilm, quadruplicate, read-out: average percentage reduction of biofilm relative to the two control values (dispersion). As for the experimental part: as §1
The test system of test [4] is S. epidermidis strain ATCC 35984. Kind of test: Biofilm prevention screen (96-well microplate, crystal violet). As to conditions: Staphylococcus epidermidis, positive = prevention, negative = enhancement of biofilm formation, quadruplicate, read-out: average percentage reduction of biofilm formed relative to DMSO controls; for inhibition at 32 µM: ATCC35984, 32 μM; for inhibition at 160 µM: ATCC35984, 160 μM; for inhibition at 390 µM: ATCC35984, 390 μM. How it is done: (§2) Overnight cultures of 3 mL are made of P. aeruginosa strain PAO1 (grown in R2A medium (Handbook of Microbiological Media; CRC Press, 1997, second edition, R. M. Atlas, ed.), modified to omit Mg^2+ but to include 0.3–0.5% fructose (pH 7.0) and 3 μM ferrous ammonium sulfate), P. fluorescens strain ATCC 13525 (grown in R2A modified to omit Mg^2+ but to include 0.3–0.5% sodium pyruvate (pH 7.0)), S. epidermidis strain ATCC 35984 (grown in a ¼ dilution of TSB (Handbook of Microbiological Media; CRC Press, 1997, second edition, R. M. Atlas, ed.) supplemented with 1% fructose (pH 7.0) and 3 μM ferrous ammonium sulfate). To each type of growth medium, HEPES (pH 7.3) is optionally added to a final concentration of 10 mM.
(§3) To PS, PVC, or PP (preferably PP or PVC) round-bottom, 96-well microplates containing 100 μl per well of the respective growth medium as described above, compounds to be tested (dissolved in DMSO) are added and mixed, to give a final concentration of 250–500 μM. These microplates then also are used to make successive dilutions of the compounds in the same respective growth medium to yield microplates containing final concentrations of, for example, 160 μM and 32 μM of the same set of compounds. Control wells are included in the dilution series that contain only DMSO. From the 3 ml overnight cultures, each of the three dilution plate sets is inoculated with 5 μl per well of a 1:1 dilution in the same liquid growth media of the appropriate culture. The covered plate is then incubated with shaking, at 30° C. (for P. aeruginosa or P. fluorescens) or 37° C. (for S. epidermidis), at 200 rpm, for 16–26 hours, in a humidity controlled environment.
(§4) Cells present in biofilm attached to the microplate surface are stained with CV either after removal of the liquid from each well, followed by rinsing three times (aspiration and addition) with 150 μl per well phosphate buffered saline solution (PBS) and final addition of 100 μl per well of PBS, or by direct addition of stain to bacterial cultures without rinsing. To 100 μl per well of PBS or of bacterial culture, 25 μl/well of 1% CV solution (in ˜10% ethanol) is added. After incubation at room temperature for 45 minutes, the dye solution is removed from the plates. Residual dye is immediately removed by gentle rinsing with a stream of deionized water by filling and inverting the plates 4–5 times, or by using an automated pipettor. Rinsed plates are air-dried at room temperature for 0.5–2 hours. Bound dye is extracted by the addition of 150 μL per well of 95% ethanol, followed by vigorous mixing for 10–15 seconds and incubation for 45 minutes at room temperature without shaking. Subsequently, either undiluted or diluted (in ethanol) samples of extracted CV are transferred to flat bottom, polystyrene microtiter plates and absorbances at 586 nm were measured in a microplate reader. Readings from wells containing compounds are compared to the average of data from control wells that contain only DMSO. Replicate samples are measured, and results are reported as averages of the replicate well data points.
(§5) Data are expressed in terms of the average percentage reduction of biofilm formed in the presence of each compound, relative to the DMSO controls, for quadruplicate samples. Assays are run using the three compound concentrations indicated. Positive numbers indicate prevention of biofilm formation by a compound, and negative numbers indicate enhancement of biofilm formation by a compound (percentage coefficients of variation are ≦10%).

The subject of test [5] is P. aeruginosa strain PAO1. The test is described as above. As to conditions: Pseudomonas aeruginosa, positive = prevention, negative = enhancement of biofilm formation, quadruplicate, read-out: average percentage reduction of biofilm formed relative to DMSO controls. How it is done: as §2, §3, §4, §5
For test [6], the system named is P. fluorescens strain ATCC 13525. The description is as above. As to conditions: Pseudomonas fluorescens, positive = prevention, negative = enhancement of biofilm formation, quadruplicate, read-out: average percentage reduction of biofilm formed relative to DMSO controls; for inhibition at 32 µM: ATCC13525, 32 μM; for inhibition at 160 µM: ATCC13525, 160 μM; for inhibition at 390 µM: ATCC13525, 390 μM. As for the experimental part: as §2, §3, §4, §5

`CCCCCCCCNC(=O)[C@@H]1CCCCN1C(=O)OC(C)(C)C` [Compound 19]: the inhibition at 390 µM was -3% in test [1]; -25% in test [2]; 0% in test [3]; -11% in test [4]; -17% in test [5]; 10% in test [6]. The inhibition at 32 µM is -11% in test [4], 10% in test [5] and 6% in test [6]. In addition, the figures for the inhibition at 160 µM in test [4], in test [5] and in test [6] were -33%, -2% and 8%, respectively.

As to `CCCCCCCCNC(=O)[C@@H]1CCCCN1` [Compound 20], the inhibition at 390 µM in test [1] was 0%; in test [2], 46%; in test [3], 25%; in test [4], -59%; in test [5], 15%; in test [6], 40%. Also, the inhibition at 32 µM was 1% in test [4], -16% in test [5] and -16% in test [6]. For the same compound, the inhibition at 160 µM is 1% in test [4], -22% in test [5] and -14% in test [6].

For `CCCCCCCCNC(=O)[C@@H]1CCCCN1C(C)=O` [Compound 21], the inhibition at 390 µM in test [1] was -8%; in test [2], -39%; in test [3], -16%; in test [4], -24%; in test [5] it was -11%; in test [6] it was 20%. Besides, the inhibition at 32 µM was -15% in test [4], -6% in test [5] and 2% in test [6]. Besides, the inhibition at 160 µM in test [4] was -23%; in test [5], -12%; in test [6], 4%.

As to `CCCCCCCCNC(=O)[C@H]1CCCCN1C(=O)OC(C)(C)C` [Compound 22, (R)-(+)-1-(tert-Butoxycarbonyl)-2-piperidinecarboxylic acid n-octyl amide], the inhibition at 390 µM in test [1] was 0%; in test [2] it was -54%; in test [3], 0%; in test [4] it was 3%; in test [5], -6%; in test [6], 25%. Further, the values for the inhibition at 32 µM in test [4], in test [5] and in test [6] were -6%, 0% and 3%, respectively. Besides, the inhibition at 160 µM in test [4] is -17%; in test [5] it was -8%; in test [6], 27%.

As for `CCCCCCCCNC(=O)[C@H]1CCCCN1` [Compound 23, (R)-(+)-2-piperidinecarboxylic acid n-octyl amide], the inhibition at 390 µM was 0% in test [1]; 0% in test [2]; 26% in test [3]; -36% in test [4]; -3% in test [5]; 21% in test [6]. Further, the inhibition at 32 µM is -1% in test [4], -5% in test [5] and -23% in test [6]. The inhibition at 160 µM in test [4] was 15%; in test [5], -31%; in test [6] it was -13%.

Take `CCCCCCCCNC(=O)[C@H]1CCCCN1C(C)=O` [Compound 24]: the inhibition at 390 µM was -8% in test [1]; -17% in test [2]; 0% in test [3]; -53% in test [4]; -11% in test [5]; -2% in test [6]. Besides, the inhibition at 32 µM in test [4] is -8%; in test [5], -12%; in test [6] it was -1%. Further, the inhibition at 160 µM in test [4] is -20%; in test [5], -22%; in test [6] it was -6%.
